According to patent US20170037425A1, “METHOD FOR IMPROVING PLANT TRAIT” (SHANGHAI INSTITUTES FOR BIOLOGICAL SCIENCES, CHINESE …, priority 2012, published 2017):

Columns and labels:
Brassica = experiment: Growth, biomass and yield of transgenic Brassica; assay type: in vivo, Brassica napus L.; conditions: T1 transgenic Brassica, vegetative stage
Description: FIG. 14. (A) WT, empty vector control (pHB) and mCherry transgenic Brassica (L1-L3) were germinated and grown for one week in the phytotron under white light (PPFD:250 μmol m^−2s^−1). Then the plants were moved and grown under white light, green light (PFD: 60 μmol m^−2s^−1) or red+blue light (red light PFD; 60 μmol m^−2s^−1, blue light PFD; 10 μmol m^−2s^−1) for another 3 weeks and photos were taken, (B) Comparison of the fresh weights and dry weights of WT and mCherry transgenic Brassica grown under white light, green light or red+blue light for four weeks. Values in the figures are means±SD, for WT, n=10, for transgenic plant transformed with empty vector control pHB and mCherry, data were the averages of three independent lines and 10 plants for each line. **p≦0.01. (C) Net photosynthetic rate of WT and mCherry transgenic Brassica measured under different light qualities. Nine-week-old WT and mCherry transgenic Brassica grown in the phytotron (PPFD: 250 μmol m^−2s^−1) were transferred and treated with different qualities of light for 4 days and net photosynthetic rate was measured. (D) Net photosynthetic rate of WT and mCherry transgenic Brassica grow in the natural field measured under different PPFD as light source. Net photosynthetic rate was measured in situ between 10:00 am and 12:00 pm. […] FIG. 15. (A) Measurement of the fresh weight and dry weight per plant of 7-week-old WT and mCherry transgenic Brassica plants grown in the natural field conditions. Values in the figures are means±SD, n=10. *p≦0.05, **p≦0.01. (B) Comparison of the plant size, silique size, seed size, grain yield per plant and 1000-seed weight at the harvesting time. Values in the figures are means±SD, n=10. *p≦0.05, **p≦0.01. Wild type (WT), transgenic Brassica with empty vector (pHB) and mCherry transgenic Brassica (L1-L3) were germinated in the phytotron under white light (light intensity: 250 μmol m^−2s^−1) for 1 week. Then the plants were transferred and continued to grow under white light, green light (light intensity: 60 μmol m^−2s^−1), red+blue light (intensity of red light: 60 μmol m^−2s^−1; intensity of blue light: 10 μmol m^−2s^−1). The […] were taken three weeks after transfer.

[1] = In vitro H2O hydrolysis and oxygen evolution catalyzed by LEAT protein under light; assay type: biochemical; parameters: key to O2 evolution activity: +: similar O2 evolution activity as that of YFP; ++: higher O2 evolution activity than that of YFP by at least one order of magnitude; weak: lower activity than that of YFP by at least one order of magnitude; conditions: for O2 evolution activity: water hydrolysis and O2 evolution under light, relative to YFP
Procedure: 1.85 ml of 50 mM phosphate buffer (pH6.5) was added in the reaction vessel of Clark-type oxygen electrode, then LEAT proteins (at a final concentration of 0.02-1 μg/ml) and 400 μM 2,3,5-trimethyl-1,4-benzoquinone (TMBQ) or other quinones were sequentially added into the buffer in dark. The oxygen evolution rate was measured under the light with corresponding excitation wave length for LEAT proteins and light intensity at 1-2 μmol m^−2 s^−1.

[2] = Electron donation by pre-illuminated LEAT protein (NAD+/NADP+ reduction); assay type: biochemical
Procedure: FIG. 1. The effects of light on NAD^+ or NAPD^+ reduction by YFP.
It was reported that proteins such as GFP can function as electron donor to reduce the oxidized small compounds such as NAD^+, potassium ferricyanide, and some proteins such as cytochrome c, and FAD-containing proteins (Bogdanov A. M. et al, 2009, Nature Chemical Biology. 5:459-461), The invertors used E. coli to express and purify recombinant proteins. […] Quinone reduction under light was analyzed by monitoring the decrease of absorption at 436 nm.

Substance	plant growth vs WT (Brassica)	O2 evolution activity [1]	other results
mCherrymu3: mCherry mutant S151C S152C K167M, SEQ ID NO: 22	grow better than WT		O2 evolution rate, increase ([1]; vs non-mutated protein, under light): 6 folds
mCherrymu5: mCherry mutant S151C S152C H166N K167M I202A, SEQ ID NO: 26	grow better than WT		
eqFP611: fluorescent protein from Entacmaea quadricolor (AY130757), SEQ ID NO: 30		+	
YFP: yellow fluorescent protein, amino acid sequence SEQ ID NO: 8		+	function as electron donor under light [2]: cannot continuously provide electrons under light; water photohydrolysis and O2 evolution activity under light ([1]; TMBQ substituted with DQ or UQ): does not have water photohydrolysis and O2 evolution activity; activity of water hydrolysis among the quinones tested (order) ([1]; different quinones, under light): TMBQ>DMBQ2>MBQ>DMBQ1
mCherrymu4: mCherry mutant S151C S152C K167M I202A, SEQ ID NO: 24	grow better than WT		
